From US20100029598A1, “Extended Benzamide Derivatives as Modulators of the EP2 Receptor” (Bayer Schering Pharma AG, priority 2008, published 2010) come the findings set out here.

Assay [1] relates to cumulus-oocyte complexes (cumulus expansion). The assay is described as follows: Cumulus expansion assay in vitro. The class given is cell-based, mice. The conditions noted are these: competing with PGE2. The procedure:
2.2 Cumulus Expansion Assay In Vitro
Folliculogenesis was induced in immature female mice (strain : CD1 (ICR) from Charles River) at an age of 14-18 days by a single dose (intraperitoneal) of 10 I.U. of PMSG (Pregnant Mare Serum Gonadotropin; Sigma G-4877, Lot 68H0909). 47-50 hours after the injection, the ovaries were removed and the cumulus-oocyte complexes were removed. The cumulus complex is not yet expanded at this stage.
The cumulus-oocyte complexes were then incubated with prostaglandin E2 (PGE2) (0.3 μM), vehicle control (ethanol) or test substances for 20-24 hours.
Medium: alpha-MEM medium with 0.1 mM IBMX, pyruvates (0.23 mM) glutamines (2 mM), pen/strep 100 IU/ml pen. and 100 μg/ml strep. and HSA (8 mg/ml). Cumulus expansion was then established through the division into four stages (according to Vanderhyden et al. Dev Biol. August 1990;140(2):307-317).

Assay [2] concerns the target T1, human Prostaglandin E2 (Subtype EP2) receptor (Homo sapiens, UniProt P43116).
T1 construct: host or cells: cells in a cell culture plate
Kind of assay: cAMP antagonism assay (HTRF cAMP detection, in presence of PGE2). Particulars: cAMP antagonism test. The class given is cell-based. The source says: 1. Detection of the Antagonism of the Human Prostaglandin E2 (Subtype EP2) Receptor Signal
1.1 Principle of Detection
(§1) The binding of PGE2 to the EP2 subtype of the human PGE2 receptor induces activation of membrane-associated adenylate cyclases and leads to the formation of cAMP. In the presence of the phosphodiesterase inhibitor IBMX, cAMP which has accumulated due to this stimulation and been released by cell lysis is employed in a competitive detection method. In this assay, the cAMP in the lysate competes with cAMP-XL665 for binding of an Eu cryptate-labelled anti-cAMP antibody.
(§2) The two lo signals are measured in a suitable measuring instrument with a time lag, i.e. after the background fluorescence has declined.
1.2.1 Antagonism assay (data for each well of a 384-well plate):
The substance solutions (0.75 μl) introduced into an assay plate and 30% DMSO were dissolved in 16 μl of a KRSB+IBMX stimulation solution (1×Krebs-Ringer Bicarbonate Buffer; Sigma-Aldrich # K-4002; including 750 μM 3-isobutyl-1-methylxanthine Sigma-Aldrich # I-7018), and then 15 μl thereof were transferred into a media-free cell culture plate which had been washed with KRSB shortly beforehand.
After preincubation at room temperature (RT) for 30 minutes, 5 μl of a 4×PGE2 solution (11 nM) were added, and incubation was carried out in the presence of the agonist at RT for a further 60 min (volume: ˜20 μl) before the reaction was then stopped by adding 5 μl of lysis buffer and incubated at RT for a further 20 min (volume: ˜25 μl). The cell lysate was then transferred into a measuring plate and measured in accordance with the manufacturer's information (cyclic AMP kit Cisbio International #62AMPPEC).
For orientation: Time-resolved FRET reads energy transfer from a long-lived donor to a nearby acceptor.

The target in assay [3] is T1, human Prostaglandin E2 (Subtype EP2) receptor. The assay is described as follows: cAMP agonism assay (cellular agonism test). Type of assay: cell-based.
Description: as §1, §2
1.2.2 Agonism Assay (Data for each Well of a 384-Well Plate): […]
After incubation at room temperature (RT; volume: ˜15 μl) for 60 minutes, the reaction was then stopped by adding 5 μl of lysis buffer and incubated at RT for a further 20 min (volume: ˜20 μl). The cell lysate was then transferred into a measuring plate and measured in accordance with the manufacturer's instructions (cyclic AMP kit Cisbio International #62AMPPEC).

T1 sequence (P43116 whole entry): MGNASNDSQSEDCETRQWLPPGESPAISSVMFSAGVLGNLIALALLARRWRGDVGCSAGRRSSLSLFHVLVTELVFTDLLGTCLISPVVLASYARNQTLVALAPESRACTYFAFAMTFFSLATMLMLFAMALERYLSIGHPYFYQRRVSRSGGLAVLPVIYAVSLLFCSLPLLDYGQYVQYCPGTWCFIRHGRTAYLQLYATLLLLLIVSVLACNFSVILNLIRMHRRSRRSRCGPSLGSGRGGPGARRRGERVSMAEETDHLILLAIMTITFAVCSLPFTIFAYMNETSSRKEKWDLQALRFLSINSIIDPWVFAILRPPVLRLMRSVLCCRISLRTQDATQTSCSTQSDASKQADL

For the compound `CC(C)Oc1ccc2c(=O)c3cc(C(=O)O)ccc3oc2c1` [AH 6809, reference compound], in assay [1] (concentration of 100-200 μM), the “suppression of cumulus expansion” value was “approx. 30%”.
Regarding `O=C(NCCc1c(C(F)(F)F)[nH]c2c(Cl)cccc12)c1cc2cc(Cl)ccc2[nH]1` [Example 30, N-[2-(7-chloro-2-trifluoromethyl-1H-indol-3-yl)ethyl]-5-chloro-1H-indole-2-carboxamide], the IC50 (usually the concentration that gives 50% inhibition) in assay [2] amounted to 670 nM.
Turning to `COc1ccc(C(=O)NCCc2c(C)[nH]c3c(Cl)cccc23)cc1OC` [Example 1, N-[2-(7-chloro-2-methyl-1H-indol-3-yl)ethyl]-3,4-dimethoxy-benzamide], in assay [2], the IC50 amounted to 320 nM.
Take `Cc1[nH]c2c(Cl)cccc2c1CCNC(=O)c1cc2cc(F)ccc2[nH]1` [Example 7, N-[2-(7-chloro-2-methyl-1H-indol-3-yl)ethyl]-5-fluoro-1H-indole-2-carboxamide]: the IC50 in assay [2] is 47 nM. In addition, the “effect in the cellular agonism test” value in assay [3] is recorded as “no inhibition”.
On to `COc1ccc(C(=O)NCCc2c(C)[nH]c3c(Cl)ccc(C)c23)cc1OC` [Example 17, N-[2-(7-chloro-2,4-dimethyl-1H-indol-3-yl)ethyl]-3,4-di-methoxybenzamide], for which the IC50 in assay [2] turned out to be 720 nM.
On to `COc1ccc(C(=O)NCCc2c(C)[nH]c3c(Cl)ccc(Cl)c23)cc1OC` [Example 5, N-[2-(4,7-dichloro-2-methyl-1H-indol-3-yl)ethyl]-3,4-dimethoxybenzamide], for which the IC50 in assay [2] was 1900 nM.
As for `Cc1[nH]c2c(Cl)ccc(F)c2c1CCNC(=O)c1cc2cc(F)ccc2[nH]1` [Example 8, N-[2-(7-chloro-4-fluoro-2-methyl-1H-indol-3-yl)ethyl]-5-fluoro-1H-indole-2-carboxamide], in assay [2], the IC50 was found to be 120 nM. The “suppression of cumulus expansion” value in assay [1] (concentration 5 μM) was “approx. 60%”.
